Three compounds from PubChem BioAssay AID1259407 (Chemical Carcinogenesis Research Information System (CCRIS), 2018) can be followed below.

Activity calls are given as the source filed them. No rule for the calls is given here.

The subject of this data set is CCRIS mutagenicity, Ames/micronucleus/aberration tests. Put plainly: CCRIS mutagenicity studies.

As to `N#CCc1ccccc1`, the mutagenic call was “inactive; negative” (Test System: AMES SALMONELLA TYPHIMURIUM, Strain/Indicator: TA97, Metabolic Activation: HAMSTER, LIVER, S-9, AROCLOR 1254 (10%), Method: PREINCUBATION); “inactive; negative” (Test System: AMES SALMONELLA TYPHIMURIUM, Strain/Indicator: TA97, Metabolic Activation: HAMSTER, LIVER, S-9, AROCLOR 1254 (30%), Method: PREINCUBATION); “inactive; negative” (Test System: AMES SALMONELLA TYPHIMURIUM, Strain/Indicator: TA97, Metabolic Activation: NONE, Method: PREINCUBATION); “inactive; negative” (Test System: AMES SALMONELLA TYPHIMURIUM, Strain/Indicator: TA97, Metabolic Activation: RAT, LIVER, S-9, AROCLOR 1254 (5 OR 30%), Method: PREINCUBATION); “inactive; negative” (Test System: AMES SALMONELLA TYPHIMURIUM, Strain/Indicator: TA97, Metabolic Activation: RAT, LIVER, S-9, AROCLOR 1254 (10%), Method: PREINCUBATION); “inactive; negative” (Test System: AMES SALMONELLA TYPHIMURIUM, Strain/Indicator: TA98, Metabolic Activation: HAMSTER, LIVER, S-9, AROCLOR 1254 (10%), Method: PREINCUBATION). The mutagenic call runs as follows: (Test System: AMES SALMONELLA TYPHIMURIUM, Strain/Indicator: TA98, Metabolic Activation: HAMSTER, LIVER, S-9, AROCLOR 1254 (30%), Method: PREINCUBATION) “inactive; negative”; (Test System: AMES SALMONELLA TYPHIMURIUM, Strain/Indicator: TA98, Metabolic Activation: NONE, Method: PREINCUBATION) “inactive; negative”; (Test System: AMES SALMONELLA TYPHIMURIUM, Strain/Indicator: TA98, Metabolic Activation: RAT, LIVER, S-9, AROCLOR 1254 (10%), Method: PREINCUBATION) “inactive; negative”; (Test System: AMES SALMONELLA TYPHIMURIUM, Strain/Indicator: TA98, Metabolic Activation: RAT, LIVER, S-9, AROCLOR 1254 (30%), Method: PREINCUBATION) “inactive; negative”; (Test System: AMES SALMONELLA TYPHIMURIUM, Strain/Indicator: TA100, Metabolic Activation: HAMSTER, LIVER, S-9, AROCLOR 1254 (10%), Method: PREINCUBATION) “inactive; negative”; (Test System: AMES SALMONELLA TYPHIMURIUM, Strain/Indicator: TA100, Metabolic Activation: HAMSTER, LIVER, S-9, AROCLOR 1254 (30%), Method: PREINCUBATION) “inactive; negative”. Further, the mutagenic call is, setting by setting: (Test System: AMES SALMONELLA TYPHIMURIUM, Strain/Indicator: TA100, Metabolic Activation: NONE, Method: PREINCUBATION) “inactive; negative”; (Test System: AMES SALMONELLA TYPHIMURIUM, Strain/Indicator: TA100, Metabolic Activation: RAT, LIVER, S-9, AROCLOR 1254 (10%), Method: PREINCUBATION) “inactive; negative”; (Test System: AMES SALMONELLA TYPHIMURIUM, Strain/Indicator: TA100, Metabolic Activation: RAT, LIVER, S-9, AROCLOR 1254 (30%), Method: PREINCUBATION) “inactive; negative”; (Test System: AMES SALMONELLA TYPHIMURIUM, Strain/Indicator: TA1535, Metabolic Activation: HAMSTER, LIVER, S-9, AROCLOR 1254 (10%), Method: PREINCUBATION) “inactive; negative”; (Test System: AMES SALMONELLA TYPHIMURIUM, Strain/Indicator: TA1535, Metabolic Activation: HAMSTER, LIVER, S-9, AROCLOR 1254 (30%), Method: PREINCUBATION) “inactive; negative”; (Test System: AMES SALMONELLA TYPHIMURIUM, Strain/Indicator: TA1535, Metabolic Activation: NONE, Method: PREINCUBATION) “inactive; negative”. Also, the mutagenic call is “inactive; negative” (Test System: AMES SALMONELLA TYPHIMURIUM, Strain/Indicator: TA1535, Metabolic Activation: RAT, LIVER, S-9, AROCLOR 1254 (30%), Method: PREINCUBATION); “inactive; negative” (Test System: AMES SALMONELLA TYPHIMURIUM, Strain/Indicator: TA1537, Metabolic Activation: HAMSTER, LIVER, S-9, AROCLOR 1254 (10%), Method: PREINCUBATION); “inactive; negative” (Test System: AMES SALMONELLA TYPHIMURIUM, Strain/Indicator: TA1537, Metabolic Activation: HAMSTER, LIVER, S-9, AROCLOR 1254 (30%), Method: PREINCUBATION); “inactive; negative” (Test System: AMES SALMONELLA TYPHIMURIUM, Strain/Indicator: TA1537, Metabolic Activation: NONE, Method: PREINCUBATION); “inactive; negative” (Test System: AMES SALMONELLA TYPHIMURIUM, Strain/Indicator: TA1537, Metabolic Activation: RAT, LIVER, S-9, AROCLOR 1254 (10%), Method: PREINCUBATION); “inactive; negative” (Test System: AMES SALMONELLA TYPHIMURIUM, Strain/Indicator: TA1537, Metabolic Activation: RAT, LIVER, S-9, AROCLOR 1254 (30%), Method: PREINCUBATION).
With `CC(=O)[O-].CC(=O)[O-].O.O.O.O.[Co+2]`, the mutagenic call is “active; positive (structural changes)” (End Point: In vitro chromosomal aberrations, Test System: Chinese hamster lung (CHL/IU) cells, Metabolic Activation: None); “active; positive (structural changes)” (End Point: In vitro chromosomal aberrations, Test System: Chinese hamster lung (CHL/IU) cells, Metabolic Activation: Rat, Liver, S9, Phenobarbital and 5,6-benzoflavone); “inactive; negative” (Test System: Ames Salmonella typhimurium, Strain/Indicator: TA98, Metabolic Activation: Rat, Liver, S9, Sodium phenobarbital and 5,6-benzoflavone (10%), Method: Preincubation); “inactive; negative” (Test System: Ames Salmonella typhimurium, Strain/Indicator: TA100, Metabolic Activation: Rat, Liver, S9, Sodium phenobarbital and 5,6-benzoflavone (10%), Method: Preincubation); “inactive; negative” (Test System: Ames Salmonella typhimurium, Strain/Indicator: TA1535, Metabolic Activation: None, Method: Preincubation); “inactive; negative” (Test System: Ames Salmonella typhimurium, Strain/Indicator: TA1535, Metabolic Activation: Rat, Liver, S9, Sodium phenobarbital and 5,6-benzoflavone (10%), Method: Preincubation). The mutagenic call reads like this: (Test System: Ames Salmonella typhimurium, Strain/Indicator: TA1537, Metabolic Activation: Rat, Liver, S9, Sodium phenobarbital and 5,6-benzoflavone (10%), Method: Preincubation) “inactive; negative”; (Test System: E. coli, Strain/Indicator: WP2uvrA/pKM101, Metabolic Activation: None, Method: Preincubation) “active; positive”; (Test System: E. coli, Strain/Indicator: WP2uvrA/pKM101, Metabolic Activation: Rat, Liver, S9, Sodium phenobarbital and 5,6-benzoflavone (10%), Method: Preincubation) “inactive; negative”.
As for `CC(=O)Nc1snc2c(Cl)cc(Cl)cc12`, the mutagenic call was “inactive; negative” (Test System: AMES SALMONELLA TYPHIMURIUM, Strain/Indicator: TA98, Metabolic Activation: NONE, Method: STANDARD PLATE); “inactive; negative” (Test System: AMES SALMONELLA TYPHIMURIUM, Strain/Indicator: TA98, Metabolic Activation: S-9, Method: STANDARD PLATE); “inactive; negative” (Test System: AMES SALMONELLA TYPHIMURIUM, Strain/Indicator: TA100, Metabolic Activation: NONE, Method: STANDARD PLATE); “inactive; negative” (Test System: AMES SALMONELLA TYPHIMURIUM, Strain/Indicator: TA100, Metabolic Activation: S-9, Method: STANDARD PLATE); “inactive; negative” (Test System: AMES SALMONELLA TYPHIMURIUM, Strain/Indicator: TA1535, Metabolic Activation: NONE, Method: STANDARD PLATE); “inactive; negative” (Test System: AMES SALMONELLA TYPHIMURIUM, Strain/Indicator: TA1535, Metabolic Activation: S-9, Method: STANDARD PLATE). Moreover, the mutagenic call by setting is: (Test System: AMES SALMONELLA TYPHIMURIUM, Strain/Indicator: TA1537, Metabolic Activation: NONE, Method: STANDARD PLATE) “inactive; negative”; (Test System: AMES SALMONELLA TYPHIMURIUM, Strain/Indicator: TA1537, Metabolic Activation: S-9, Method: STANDARD PLATE) “inactive; negative”.
